Assay results from US9527838B2, “2-pyridinecarboxamide derivatives, compositions containing such compounds, and methods of treatment” (priority 2012, dated 2016).
Where two headings read alike, the source gives them in different places.

Biological target: Recombinant human liver glucokinase (Homo sapiens (Human), UniProt P35557)
Assay: Glucokinase activation assay (G6PDH-coupled, Thio-NADH absorbance at 405 nm)
Format: biochemical
Conditions: for EC50: 30° C.
Description: The glucokinase activity can, for instance, be determined without directly measuring glucose-6-phosphate by measuring the amount of Thio-NADH generated during the production of phosphogluconolactone from glucose-6-phosphate by a reporter enzyme glucose-6-phosphate dehydrogenase.
To test the exemplified compounds, the following assay was employed. Recombinant human liver glucokinase was expressed as a FLAG fusion protein in E. coli, and purified on […] M2 AFFINITY GEL (Sigma). The assay was carried out at 30° C. in a 96-well plate. In the plate was distributed 69 μl each of assay buffer (25 mM Hepes Buffer: pH=7.2, 2 mM MgCl2, 1 mM ATP, 0.5 mM TNAD, 1 mM dithiothreitol), to which was added 1 μl of a DMSO solution of the compound or DMSO as control. Then, 20 μl of pre-ice-cooled enzyme mixture (FLAG-GK, 20 U/ml G6PDH) was distributed thereto, to which was added 10 μl of 25 mM glucose as substrate to initiate the reaction (final glucose concentration=2.5 mM). After starting the reaction, the absorbance at 405 nm was measured every 30 seconds for 10 minutes to evaluate the compound based on the initial increase for 5 minutes. FLAG-GK was added so that the increase of absorbance after 5 minutes fell between 0.05 to 0.1 in the presence of 1% DMSO.
The OD values of the respective compounds were measured in the respective concentrations, wherein the OD value of DMSO as control is regarded as 100%.

Recombinant human liver glucokinase, sequence (P35557 other isoform, or with tags, fused parts or gaps): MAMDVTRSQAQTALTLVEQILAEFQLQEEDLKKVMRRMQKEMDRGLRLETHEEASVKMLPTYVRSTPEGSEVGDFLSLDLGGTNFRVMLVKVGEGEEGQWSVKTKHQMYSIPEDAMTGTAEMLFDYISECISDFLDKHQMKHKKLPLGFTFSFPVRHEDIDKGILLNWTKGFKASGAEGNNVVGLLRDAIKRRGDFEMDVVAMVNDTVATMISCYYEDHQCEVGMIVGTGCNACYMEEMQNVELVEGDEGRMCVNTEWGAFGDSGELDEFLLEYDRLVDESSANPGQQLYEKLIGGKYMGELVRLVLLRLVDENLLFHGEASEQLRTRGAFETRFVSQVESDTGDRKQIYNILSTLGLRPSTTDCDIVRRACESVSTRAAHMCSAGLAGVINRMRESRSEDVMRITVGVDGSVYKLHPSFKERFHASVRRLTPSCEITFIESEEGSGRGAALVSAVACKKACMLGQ

COC(=O)CCc1cnc(NC(=O)c2nc(Sc3ccccn3)ccc2Sc2ccc(F)cc2)s1 [Example 39, Methyl 3-{2-[({3-[(4-fluorophenyl)sulfanyl]-6-(pyridin-2-ylsulfanyl)pyridin-2-yl}carbonyl)amino]-1,3-thiazol-5-yl}propanoate]
Emax: 468%
EC50 (2.5 mM Glu): 726 nM

O=C(O)CSc1cnc(NC(=O)c2nc(Sc3ccc(F)cc3)ccc2Sc2ccc(F)cc2)s1 [Example 28, ({2-[({3,6-Bis[(4-fluorophenyl)sulfanyl]pyridin-2-yl}carbonyl)amino]-1,3-thiazol-5-yl}sulfanyl)acetic acid]
Emax: 343%
EC50 (2.5 mM Glu): 172 nM

CCOC(=O)Cc1nc(NC(=O)c2nc(Sc3nncn3C)ccc2Sc2ccc(C(F)(F)F)cc2)sc1Cl [Example 41, Ethyl (5-chloro-2-{[(6-[(4-methyl-4H-1,2,4-triazol-3-yl)sulfanyl]-3-{[4-(trifluoromethyl)phenyl]sulfanyl}pyridin-2-yl)carbonyl]amino}-1,3-thiazol-4-yl)acetate]
Emax: 296%
EC50 (2.5 mM Glu): 18.9 nM

CCOC(=O)C(C)(C)CSc1cnc(NC(=O)c2nc(Sc3nncn3C)ccc2Sc2ccc(OC)cc2)s1 [Example 5, Ethyl 3-({2-[({3-[(4-methoxyphenyl)sulfanyl]-6-[(4-methyl-4H-1,2,4-triazol-3-yl)sulfanyl]pyridin-2-yl}carbonyl)amino]-1,3-thiazol-5-yl}sulfanyl)-2,2-dimethylpropanoate]
Emax: 490%
EC50 (2.5 mM Glu): 14.3 nM

Cn1cnnc1Sc1ccc(Sc2ccc(C(F)(F)F)cc2)c(C(=O)Nc2ncc(CCC(=O)O)s2)n1 [Example 49, 3-(2-{[(6-[(4-Methyl-4H-1,2,4-triazol-3-yl)sulfanyl]-3-{[4-(trifluoromethyl)phenyl]sulfanyl}pyridin-2-yl)carbonyl]amino}-1,3-thiazol-5-yl)propanoic acid]
Emax: 549%
EC50 (2.5 mM Glu): 173 nM

O=C(O)Cc1nc(NC(=O)c2nc(Sc3ccc(F)cc3)ccc2Sc2ccc(F)cc2)sc1Cl [Example 30, {2-[({3,6-Bis[(4-fluorophenyl)sulfanyl]pyridin-2-yl}carbonyl)amino]-5-chloro-1,3-thiazol-4-yl}acetic acid]
Emax: 393%
EC50 (2.5 mM Glu): 16.3 nM

O=C(O)CSc1cnc(NC(=O)c2nc(Sc3ccccn3)ccc2Sc2ccc(F)cc2)s1 [Example 36, ({2-[({3-[(4-Fluorophenyl)sulfanyl]-6-(pyridin-2-ylsulfanyl)pyridin-2-yl}carbonyl)amino]-1,3-thiazol-5-yl}sulfanyl)acetic acid]
Emax: 514%
EC50 (2.5 mM Glu): 34 nM

COc1ccc(Sc2ccc(Sc3ccccn3)nc2C(=O)Nc2nc(CC(=O)O)c(Cl)s2)cc1 [Example 13, {5-Chloro-2-[({3-[(4-methoxyphenyl)sulfanyl]-6-(pyridin-2-ylsulfanyl)pyridin-2-yl}carbonyl)amino]-1,3-thiazol-4-yl}acetic acid]
Emax: 584%
EC50 (2.5 mM Glu): 9 nM

CCOC(=O)Cc1csc(NC(=O)c2nc(Sc3ccccn3)ccc2Sc2ccc(OC)cc2)n1 [Example 16, Ethyl {2-[({3-[(4-methoxyphenyl)sulfanyl]-6-(pyridin-2-ylsulfanyl)pyridin-2-yl}carbonyl)amino]-1,3-thiazol-4-yl}acetate]
Emax: 524%
EC50 (2.5 mM Glu): 275 nM

COC(=O)CCc1cnc(NC(=O)c2nc(Sc3nncn3C)ccc2Sc2ccc(C(F)(F)F)cc2)s1 [Example 48, Methyl 3-(2-{[(6-[(4-methyl-4H-1,2,4-triazol-3-yl)sulfanyl]-3-{[4-(trifluoromethyl)phenyl]sulfanyl}pyridin-2-yl)carbonyl]amino}-1,3-thiazol-5-yl)propanoate]
Emax: 428%
EC50 (2.5 mM Glu): 71.8 nM

CCOC(=O)CSc1cnc(NC(=O)c2nc(Sc3ccccn3)ccc2Sc2ccc(F)cc2)s1 [Example 35, Ethyl ({2-[({3-[(4-fluorophenyl)sulfanyl]-6-(pyridin-2-ylsulfanyl)pyridin-2-yl}carbonyl)amino]-1,3-thiazol-5-yl}sulfanyl)acetate]
Emax: 504%
EC50 (2.5 mM Glu): 83.8 nM

Cn1cnnc1Sc1ccc(Sc2ccc(C(F)(F)F)cc2)c(C(=O)Nc2ncc(SCC(=O)O)s2)n1 [Example 44, [(2-{[(6-[(4-Methyl-4H-1,2,4-triazol-3-yl)sulfanyl]-3-{[4-(trifluoromethyl)phenyl]sulfanyl}pyridin-2-yl)carbonyl]amino}-1,3-thiazol-5-yl)sulfanyl]acetic acid]
Emax: 349%
EC50 (2.5 mM Glu): 33.7 nM

Cn1cnnc1Sc1ccc(Sc2ccc(C(F)(F)F)cc2)c(C(=O)Nc2nc(CC(=O)O)cs2)n1 [Example 47, (2-{[(6-[(4-Methyl-4H-1,2,4-triazol-3-yl)sulfanyl]-3-{[4-(trifluoromethyl)phenyl]sulfanyl}pyridin-2-yl)carbonyl]amino}-1,3-thiazol-4-yl)acetic acid]
Emax: 633%
EC50 (2.5 mM Glu): 222 nM

CCOC(=O)Cc1nc(NC(=O)c2nc(Sc3ccccn3)ccc2Sc2ccc(OC)cc2)sc1Cl [Example 12]
Emax: 427%
EC50 (2.5 mM Glu): 47.6 nM

CCOC(=O)Cc1nc(NC(=O)c2nc(Sc3ccccn3)ccc2Sc2ccc(F)cc2)sc1Cl [Example 31, Ethyl {5-chloro-2-[({3-[(4-fluorophenyl)sulfanyl]-6-(pyridin-2-ylsulfanyl)pyridin-2-yl}carbonyl)amino]-1,3-thiazol-4-yl}acetate]
Emax: 436%
EC50 (2.5 mM Glu): 127 nM

CCOC(=O)CSc1cnc(NC(=O)c2nc(Sc3ccccn3)ccc2Sc2ccc(OC)cc2)s1 [Example 10, Ethyl ({2-[({3-[(4-methoxyphenyl)sulfanyl]-6-(pyridin-2-ylsulfanyl)pyridin-2-yl}carbonyl)amino]-1,3-thiazol-5-yl}sulfanyl)acetate]
EC50 (2.5 mM Glu): 35.2 nM
Emax (2.5 mM Glu, OD value of DMSO as control regarded as 100%, read-out: Emax): 498%

COc1ccc(Sc2ccc(Sc3ccccn3)nc2C(=O)Nc2ncc(CCC(=O)O)s2)cc1 [Example 15, 3-{2-[({3-[(4-Methoxyphenyl)sulfanyl]-6-(pyridin-2-ylsulfanyl)pyridin-2-yl}carbonyl)amino]-1,3-thiazol-5-yl}propanoic acid]
Emax: 645%
EC50 (2.5 mM Glu): 140 nM

COc1ccc(Sc2ccc(Sc3ccccn3)nc2C(=O)Nc2nc(CC(=O)O)cs2)cc1 [Example 17, {2-[({3-[(4-Methoxyphenyl)sulfanyl]-6-(pyridin-2-ylsulfanyl)pyridin-2-yl}carbonyl)amino]-1,3-thiazol-4-yl}acetic acid]
Emax: 698%
EC50 (2.5 mM Glu): 106 nM

COc1ccc(Sc2ccc(Sc3ccccn3)nc2C(=O)Nc2ncc(SCC(=O)O)s2)cc1 [Example 11, ({2-[({3-[(4-Methoxyphenyl)sulfanyl]-6-(pyridin-2-ylsulfanyl)pyridin-2-yl}carbonyl)amino]-1,3-thiazol-5-yl}sulfanyl)acetic acid]
Emax: 509%
EC50 (2.5 mM Glu): 10.9 nM

Cn1cnnc1Sc1ccc(Sc2ccc(Cl)c(Cl)c2)c(C(=O)Nc2nc(CC(=O)O)c(Cl)s2)n1 [Example 54, {5-Chloro-2-[({3-[(3,4-dichlorophenyl)sulfanyl]-6-[(4-methyl-4H-1,2,4-triazol-3-yl)sulfanyl]pyridin-2-yl}carbonyl)amino]-1,3-thiazol-4-yl}acetic acid]
Emax: 523%
EC50 (2.5 mM Glu): 23.3 nM

Cn1cnnc1Sc1ccc(Sc2ccc(F)cc2)c(C(=O)Nc2nc(CC(=O)O)c(Cl)s2)n1 [Example 25, {5-Chloro-2-[({3-[(4-fluorophenyl)sulfanyl]-6-[(4-methyl-4H-1,2,4-triazol-3-yl)sulfanyl]pyridin-2-yl}carbonyl)amino]-1,3-thiazol-4-yl}acetic acid]
Emax: 525%
EC50 (2.5 mM Glu): 18.6 nM

O=C(O)CCc1cnc(NC(=O)c2nc(Sc3ccccn3)ccc2Sc2ccc(F)cc2)s1 [Example 40, 3-{2[({3-[(4-Fluorophenyl)sulfanyl]-6-(pyridin-2-ylsulfanyl)pyridin-2-yl}carbonyl)amino]-1,3-thiazol-5-yl}propanoic acid]
Emax: 658%
EC50 (2.5 mM Glu): 428 nM

COc1ccc(Sc2ccc(Sc3nncn3C)nc2C(=O)Nc2ccc(CC(N)=O)cc2)cc1 [Example 9, N-[4-(2-Amino-2-oxoethyl)phenyl]-3-[(4-methoxyphenyl)sulfanyl]-6-[(4-methyl-4H-1,2,4-triazol-3-yl)sulfanyl]pyridine-2-carboxamide]
Emax: 191%
EC50 (2.5 mM Glu): 1890 nM

CCOC(=O)Cc1csc(NC(=O)c2nc(Sc3ccccn3)ccc2Sc2ccc(F)cc2)n1 [Example 33, Ethyl {2-[({3-[(4-fluorophenyl)sulfanyl]-6-(pyridin-2-ylsulfanyl)pyridin-2-yl}carbonyl)amino]-1,3-thiazol-4-yl}acetate]
Emax: 456%
EC50 (2.5 mM Glu): 4660 nM

COC(=O)CCc1cnc(NC(=O)c2nc(Sc3ccccn3)ccc2Sc2ccc(OC)cc2)s1 [Example 14, Methyl 3-{2-[({3-[(4-methoxyphenyl)sulfanyl]-6-(pyridin-2-ylsulfanyl)pyridin-2-yl}carbonyl)amino]-1,3-thiazol-5-yl}propanoate]
Emax: 486%
EC50 (2.5 mM Glu): 290 nM

O=C(O)Cc1nc(NC(=O)c2nc(Sc3ccccn3)ccc2Sc2ccc(F)cc2)sc1Cl [Example 32, {5-Chloro-2-[({3-[(4-fluorophenyl)sulfanyl]-6-(pyridin-2-ylsulfanyl)pyridin-2-yl}carbonyl)amino]-1,3-thiazol-4-yl}acetic acid]
Emax: 643%
EC50 (2.5 mM Glu): 16.1 nM
